From ChEMBL document CHEMBL3745637, “New hybrid molecules with anticonvulsant and antinociceptive activity derived from 3-methyl- or 3,3-dimethyl-1-[1-oxo-1-(4-phenylpiperazin-1-yl)propan-2-yl]pyrrolidine-2,5-diones” (Bioorg Med Chem, 2016)
The source made the active and inactive calls. The rule behind the calls is not given here.

How the values were obtained:
Mus musculus [1] = assay: Anticonvulsant activity in Swiss mouse assessed as protection against maximal electroshock-induced seizures at 100 mg/kg, ip pretreated for 2 hrs; assay type: functional, organism-based
Mus musculus [2] = assay: Anticonvulsant activity in ip dosed Swiss mouse assessed as protection against maximal electroshock-induced seizures at 0.25 hrs; assay type: functional
Mus musculus [3] = assay: Anticonvulsant activity in Swiss mouse assessed as protection against maximal electroshock-induced seizures at 300 mg/kg, ip pretreated for 2 hrs; assay type: functional, organism-based
Mus musculus [4] = assay: Anticonvulsant activity against ip dosed Swiss mouse seizure model assessed as protection at 0.25 hrs by 6 Hz psychomotor seizure test; assay type: functional
[5] = Neurotoxicity in ip dosed Swiss mouse seizure model assessed as motor impairment pretreated for 0.25 hrs measured within 60 s by chimney test; assay type: toxicity, organism-based; conditions: in vivo
Mus musculus [6] = assay: Anticonvulsant activity in Swiss mouse assessed as protection against maximal electroshock-induced seizures at 100 mg/kg, ip pretreated for 1 hr; assay type: functional, organism-based
[7] = Protective index, ratio of TD50 for neurotoxicity in ip dosed Swiss mouse to ED50 for anticonvulsant activity in ip dosed MES Swiss mouse model at 0.25 hrs; assay type: toxicity, organism-based; conditions: in vivo, read-out: Ratio TD50/ED50
Mus musculus [8] = assay: Anticonvulsant activity in ip dosed Swiss mouse assessed as reduction in clonic seizures at 0.25 hrs by subcutaneous pentylenetetrazole seizure test; assay type: functional
Mus musculus [9] = assay: Anticonvulsant activity against Swiss mouse seizure model assessed as protection at 100 mg/kg, ip pretreated for 2 hrs by 6 Hz psychomotor seizure test; assay type: functional, organism-based
Mus musculus [10] = assay: Antinociceptive activity in ip dosed Swiss mouse assessed as reduction of formalin-induced licking at MES ED50 pretreated for 0.25 hrs measured during 1 to 5 mins; assay type: functional
Mus musculus [11] = assay: Anticonvulsant activity against Swiss mouse seizure model assessed as protection at 100 mg/kg, ip pretreated for 0.25 hrs by 6 Hz psychomotor seizure test; assay type: functional, organism-based
[12] = Protective index, ratio of TD50 for neurotoxicity in ip dosed Swiss mouse to ED50 for anticonvulsant activity in ip dosed Swiss mouse 6 Hz psychomotor seizure model at 0.25 hrs; assay type: toxicity, organism-based; conditions: in vivo, read-out: Ratio TD50/ED50
Mus musculus [13] = assay: Antinociceptive activity in ip dosed Swiss mouse assessed as reduction of formalin-induced licking at MES ED50 pretreated for 0.25 hrs measured during 15 to 20 mins; assay type: functional; design: scale not given: the % may be the effect or the level left
Mus musculus [14] = assay: Anticonvulsant activity in Swiss mouse assessed as protection against maximal electroshock-induced seizures at 300 mg/kg, ip pretreated for 0.25 hrs; assay type: functional, organism-based
Mus musculus [15] = assay: Anticonvulsant activity in Swiss mouse assessed as protection against maximal electroshock-induced seizures at 300 mg/kg, ip pretreated for 0.5 hrs; assay type: functional, organism-based
Mus musculus [16] = assay: Anticonvulsant activity in Swiss mouse assessed as protection against maximal electroshock-induced seizures at 300 mg/kg, ip pretreated for 1 hr; assay type: functional, organism-based
Mus musculus [17] = assay: Anticonvulsant activity in Swiss mouse assessed as protection against maximal electroshock-induced seizures at 100 mg/kg, ip pretreated for 0.25 hrs; assay type: functional, organism-based
Mus musculus [18] = assay: Anticonvulsant activity in Swiss mouse assessed as protection against maximal electroshock-induced seizures at 100 mg/kg, ip pretreated for 0.5 hrs; assay type: functional, organism-based
Rattus norvegicus [19] = species on record: Rattus norvegicus; assay: Displacement of [3H]Batrachotoxinin from sodium channel site 2 in rat cerebral cortex at 100 uM after 60 mins by scintillation counting method; assay type: tissue-based
Rattus norvegicus [20] = species on record: Rattus norvegicus; assay: Displacement of [3H]Batrachotoxinin from sodium channel site 2 in rat cerebral cortex at 500 uM after 60 mins by scintillation counting method; assay type: tissue-based
[21] = Neurotoxicity in ip dosed Swiss mouse seizure model assessed as motor impairment pretreated for 0.5 hrs measured within 60 s by chimney test; assay type: toxicity, organism-based; conditions: in vivo
Mus musculus [22] = assay: Anticonvulsant activity in ip dosed Swiss mouse assessed as protection against maximal electroshock-induced seizures at 0.5 hrs; assay type: functional
Mus musculus [23] = assay: Anticonvulsant activity against ip dosed Swiss mouse seizure model assessed as protection at 0.5 hrs by 6 Hz psychomotor seizure test; assay type: functional
Mus musculus [24] = assay: Anticonvulsant activity in ip dosed Swiss mouse assessed as reduction in clonic seizures at 0.5 hrs by subcutaneous pentylenetetrazole seizure test; assay type: functional
[25] = Protective index, ratio of TD50 for neurotoxicity in ip dosed Swiss mouse to ED50 for anticonvulsant activity in ip dosed MES Swiss mouse model at 0.5 hrs; assay type: toxicity, organism-based; conditions: in vivo, read-out: Ratio TD50/ED50
[26] = Protective index, ratio of TD50 for neurotoxicity in ip dosed Swiss mouse to ED50 for anticonvulsant activity in ip dosed Swiss mouse 6 Hz psychomotor seizure model at 0.5 hrs; assay type: toxicity, organism-based; conditions: in vivo, read-out: Ratio TD50/ED50
Mus musculus [27] = assay: Anticonvulsant activity in Swiss mouse assessed as reduction in clonic seizures at 100 mg/kg, ip pretreated for 2 hrs measured after 30 mins by subcutaneous pentylenetetrazole seizure test; assay type: functional, organism-based

| Structure (SMILES) | Activity (Mus musculus [1]) | Activity (Mus musculus [3]) | Activity (Mus musculus [6]) | Activity (Mus musculus [14]) | Activity (Mus musculus [15]) | Activity (Mus musculus [16]) | also measured |
| --- | --- | --- | --- | --- | --- | --- | --- |
| CC(C(=O)N1CCN(c2ccc(Cl)c(Cl)c2)CC1)N1C(=O)CC(C)(C)C1=O (centres undefined) | inactive |  |  |  |  |  |  |
| CCC(C(=O)N1CCN(c2cccc(Cl)c2)CC1)N1C(=O)CC(C)C1=O (centres undefined) | inactive | inactive | inactive |  |  |  | ED50 (Mus musculus [2]): 117 mg/kg; ED50 (Mus musculus [4]): 43.5 mg/kg; TD50 at 0.25 h [5]: 223 mg/kg; selectivity ratio at 0.25 h [7]: 1.91; ED50 (Mus musculus [8]): > 130 mg/kg; Activity (Mus musculus [9]): inactive; Activity (Mus musculus [10]): inactive; Activity (Mus musculus [11]): Active; selectivity ratio at 0.25 h [12]: 5.13; Activity (Mus musculus [13]): 93% |
| CC(C(=O)N1CCN(c2ccccc2C(F)(F)F)CC1)N1C(=O)CC(C)(C)C1=O (centres undefined) | inactive |  | inactive | Active | Active |  | ED50 (Mus musculus [2]): > 130 mg/kg |
| CC1CC(=O)N(C(C)C(=O)N2CCN(C)CC2)C1=O (centres undefined) |  | inactive |  | inactive | inactive | inactive |  |
| CC1CC(=O)N(C(C)C(=O)N2CCN(c3ccccc3C(F)(F)F)CC2)C1=O (centres undefined) | inactive | inactive |  | Active |  |  |  |
| CC(C(=O)N1CCN(c2ccc(F)cc2)CC1)N1C(=O)CC(C)(C)C1=O (centres undefined) |  | inactive |  | inactive |  |  |  |
| CC1CC(=O)N(C(C)C(=O)N2CCN(c3ccc(F)cc3)CC2)C1=O (centres undefined) |  | inactive |  |  |  | inactive |  |
| CCC(C(=O)N1CCN(c2cccc(C(F)(F)F)c2)CC1)N1C(=O)CC(C)(C)C1=O (centres undefined) | inactive |  |  |  |  |  |  |
| COc1cccc(N2CCN(C(=O)C(C)N3C(=O)CC(C)(C)C3=O)CC2)c1 (centres undefined) | inactive | inactive | inactive |  |  | inactive | Activity (Mus musculus [17]): inactive; Activity (Mus musculus [18]): inactive |
| CCC(C(=O)N1CCN(c2cccc(Cl)c2)CC1)N1C(=O)CC(C)(C)C1=O (centres undefined) | inactive |  | inactive |  |  |  | Activity (Mus musculus [17]): inactive; Activity (Mus musculus [18]): inactive |
| CC1CC(=O)N(C(C)C(=O)N2CCN(c3ccccc3Cl)CC2)C1=O (centres undefined) | inactive | inactive | inactive |  |  |  | Activity (Mus musculus [17]): inactive; Activity (Mus musculus [18]): inactive |
| NC(=O)N1c2ccccc2C=Cc2ccccc21 |  |  |  |  |  |  | inhibition (Rattus norvegicus [19]): 17.4%; inhibition (Rattus norvegicus [20]): 33.6% |
| Cc1cccc(N2CCN(C(=O)C(C)N3C(=O)CC(C)C3=O)CC2)c1 (centres undefined) | inactive | inactive | inactive | Active | Active |  | ED50 (Mus musculus [2]): 122 mg/kg; TD50 at 0.25 h [5]: 210 mg/kg; selectivity ratio at 0.25 h [7]: 1.73 |
| CC1CC(=O)N(CC(=O)N2CCN(c3cccc(C(F)(F)F)c3)CC2)C1=O (centres undefined) |  |  |  |  |  |  | TD50 at 0.5 h [21]: 225 mg/kg; ED50 (Mus musculus [22]): 80.6 mg/kg; ED50 (Mus musculus [23]): 52.3 mg/kg; ED50 (Mus musculus [24]): > 200 mg/kg |
| CC(C(=O)N1CCN(c2ccccc2F)CC1)N1C(=O)CC(C)(C)C1=O (centres undefined) |  | inactive |  | inactive | inactive | inactive |  |
| Cc1cccc(N2CCN(C(=O)C(C)N3C(=O)CC(C)(C)C3=O)CC2)c1 (centres undefined) | inactive | inactive | inactive |  |  |  | Activity (Mus musculus [17]): inactive; Activity (Mus musculus [18]): inactive |
| CC(C(=O)N1CCN(c2ccccc2)CC1)N1C(=O)CC(C)(C)C1=O (centres undefined) | inactive | inactive | inactive | Active | Active |  | ED50 (Mus musculus [2]): > 130 mg/kg |
| CC1CC(=O)N(C(C)C(=O)N2CCN(c3ccc(Cl)c(Cl)c3)CC2)C1=O (centres undefined) | inactive |  | inactive |  |  |  |  |
| CC(C(=O)N1CCN(c2cccc(F)c2)CC1)N1C(=O)CC(C)(C)C1=O (centres undefined) | inactive |  |  |  |  |  |  |
| COC[C@@H](NC(C)=O)C(=O)NCc1ccccc1 [LACOSAMIDE] |  |  |  |  |  |  | selectivity ratio at 0.5 h [25]: 3.6; selectivity ratio at 0.5 h [26]: 5.26; ED50 (Mus musculus [22]): 9.4 mg/kg; ED50 (Mus musculus [23]): 6.4 mg/kg; ED50 (Mus musculus [24]): > 500 mg/kg |
| CC(C(=O)N1CCN(c2ccccc2Cl)CC1)N1C(=O)CC(C)(C)C1=O (centres undefined) |  | inactive |  | inactive |  |  |  |
| COc1cccc(N2CCN(C(=O)C(C)N3C(=O)CC(C)C3=O)CC2)c1 (centres undefined) | inactive |  | inactive |  |  |  | Activity (Mus musculus [18]): inactive |
| CC1CC(=O)N(C(C)C(=O)N2CCN(c3ccc(Cl)cc3)CC2)C1=O (centres undefined) |  | inactive |  |  |  |  |  |
| CC(C(=O)N1CCN(C)CC1)N1C(=O)CC(C)(C)C1=O (centres undefined) |  | inactive |  | inactive | inactive | inactive |  |
| CC1CC(=O)N(C(C)C(=O)N2CCN(c3ccccc3F)CC2)C1=O (centres undefined) | inactive | inactive | inactive |  |  | inactive | Activity (Mus musculus [18]): inactive |
| CC1CC(=O)N(C(C)C(=O)N2CCN(c3cccc(F)c3)CC2)C1=O (centres undefined) | inactive | inactive | inactive |  |  | inactive | Activity (Mus musculus [18]): inactive |
| CC(C(=O)N1CCN(c2cccc(Cl)c2)CC1)N1C(=O)CC(C)(C)C1=O (centres undefined) | inactive |  |  | Active | Active |  | Activity (Mus musculus [17]): Active; ED50 (Mus musculus [2]): 120 mg/kg; ED50 (Mus musculus [4]): 19.8 mg/kg; TD50 at 0.25 h [5]: 176 mg/kg; selectivity ratio at 0.25 h [7]: 1.47; Activity (Mus musculus [27]): inactive; Activity (Mus musculus [9]): inactive; Activity (Mus musculus [10]): 44%; Activity (Mus musculus [11]): Active; selectivity ratio at 0.25 h [12]: 8.91; ED50 (Mus musculus [24]): > 130 mg/kg; Activity (Mus musculus [13]): 91% |
| CC(C(=O)N1CCN(c2cccc(Cl)c2Cl)CC1)N1C(=O)CC(C)(C)C1=O (centres undefined) |  | inactive |  | inactive | inactive | inactive |  |
| CC1CC(=O)N(C(C)C(=O)N2CCN(c3ccccc3)CC2)C1=O (centres undefined) | inactive |  | inactive |  |  |  | Activity (Mus musculus [18]): inactive |
| CC1CC(=O)N(C(C)C(=O)N2CCN(c3cccc(Cl)c3Cl)CC2)C1=O (centres undefined) |  | inactive |  | inactive | inactive | inactive |  |
